Columns and labels:
[1] = tested on: OVCAR-3 cells; test: Cell growth inhibition, lysed cell LDH assay, ovarian cancer cell line; type: cell-based; settings: 50 μM Risperidone and/or 50 μM CLA, 1 μM Testosterone (T) where added, 96 hours;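 also: 100% is cells receiving no drug treatment and 0% is wells without cells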
Description: (§1) To determine whether Risperidone could be effective in inhibiting growth of cancer cells overexpressing HSD10, a lysed cell LDH assay was conducted using cells taken from a prostate cancer cell line, a lung cancer cell line, a breast cancer cell line, an ovarian cancer cell line, each of which was known to overexpress HSD10, and a non-cancerous cell line.
(§2) After incubation in the drug treatment for 96 hours at 37° C., 5% CO2, the supernatant was removed from all wells of cells, and cells washed with 200 μL PBS.
(§3) After removal of the PBS from the cell cultures described above, cell number was determined using a lysed cell LDH assay. Cells were lysed with 0.9% Triton-X in PBS for 2 hours at 37° C., 5% CO2 and 50 μL of this cell lysate was transferred to a fresh 96 well plate. About 50 μL of CytoTox 96 assay reagent was added to the transferred cell lysate and this mixture was incubated at room temperature in the dark for 20 minutes. After the addition of 50 μL stop reagent, the optical absorbance was determined for each incubated mixture at 492 nm. […] The mean and standard error was calculated from at least 3 wells.

[2] = tested on: MCF7 cells; test: Cell growth inhibition, lysed cell LDH assay, breast cancer cell line; type: cell-based; settings: 50 μM Risperidone and/or 50 μM CLA, 1 μM Testosterone (T) where added, 96 hours;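 also: 100% is cells receiving no drug treatment and 0% is wells without cells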
Description: as §1, §2, §3

[3] = tested on: A549 cells; test: Cell growth inhibition, lysed cell LDH assay, lung cancer cell line; type: cell-based; settings: A549; 50 μM Risperidone and/or 50 μM CLA, 1 μM Testosterone (T) where added; 96 hours
Description: To determine whether Risperidone alone, or in combination with CLA could inhibit cell growth of cells taken from a lung cancer cell line overexpressing HSD10, A549 cells were seeded at a density of 2,000 cells per well in a 96 well plate, and incubated at 37° C., 5% CO2 for 48 hours in standard growth media (DMEM nutrient media, 10% Fetal Calf Serum, 2 mM L-Glutamine). The media was then removed by pipette and replaced with the appropriate drug treatment as follows: 50 μM Risperidone in A459 treatment media (DMEM nutrient media, 125 uM fatty acid free BSA, 2 mM L-Glutamine); 50 μM CLA in A459 treatment media; 50 μM Risperidone and 50 μM CLA in A459 treatment media; 50 μM Risperidone and 1 μM Testosterone in A459 treatment media; 50 μM Risperidone, 50 μM CLA, and 1 μM Testosterone in A459 treatment media. After incubation in the drug treatment for 96 hours at 37° C., 5% CO2, the supernatant was removed from all wells of cells, and cells washed with 200 μL PBS.
After removal of the PBS from the cell cultures described above, cell number was determined using a lysed cell LDH assay. Cells were lysed with 0.9% Triton-X in PBS for 2 hours at 37° C., 5% CO2 and 50 μL of this cell lysate was transferred to a fresh 96 well plate. About 50 μL of CytoTox 96 assay reagent was added to the transferred cell lysate and this mixture was incubated at room temperature in the dark for 20 minutes. After the addition of 50 μL stop reagent, the optical absorbance was determined for each incubated mixture at 492 nm. The percentage cell number was calculated by normalizing the experimental counts, where 100% is set to cells receiving no drug treatment, and 0% is set to readings from wells containing no cells. The mean and standard error was calculated from at least 3 wells.

[4] = tested on: PC3 cells; test: Cell metabolism inhibition assay (Cell titre Blue) with fatty acids; type: cell-based; settings: 100% = undrugged media
Description: A cell metabolism inhibition assay was performed to determine the effect of different fatty acids on cellular metabolic rate. The fatty acids tested were α-Linolenic acid, omega 3 fatty acid (ALA), Arachidonic acid, omega 6 fatty acid (AA), 9Z, 11E conjugated Linoleic acid, omega 7 fatty acid (CLA), Docosahexaenoic acid, omega 3 fatty acid (DHA), Eicosapentaenoic acid, omega 3 fatty acid (EPA), Oleic acid, omega 9 fatty acid (OA), Ricinoleic acid, omega 9 hydroxylated fatty acid (RA).
PC3 cells are from a cell line derived from a hormone refractory prostate cancer and are known to overexpress HSD10. PC3 cells were seeded at a density of 4,000 cells per well in a 96 well plate, and incubated at 37° C., 5% CO2 for 48 hours in standard growth media (F12K nutrient media, 7% Fetal Calf Serum, 2 mM L-Glutamine, 45 mg/L ascorbic acid). The media was then removed by pipette and replaced with the appropriate drug treatment as follows: 20 μM, or 40 μM, or 60 μM, or 80 μM, or 100 μM ALA in PC3 treatment media (F12K nutrient media, 125 uM fatty acid free BSA, 2 mM L-Glutamine, 45 mg/L ascorbic acid); 20 μM, or 40 μM, or 60 μM, or 80 μM, or 100 μM AA in PC3 treatment media; 20 μM, or 40 μM, or 60 μM, or 80 μM, or 100 μM CLA in PC3 treatment media; 20 μM, or 40 μM, or 60 μM, or 80 μM, or 100 μM DHA in PC3 treatment media; 20 μM, or 40 μM, or 60 μM, or 80 μM, or 100 μM EPA in PC3 treatment media; 20 μM, or 40 μM, or 60 μM, or 80 μM, or 100 μM OA in PC3 treatment media; and 20 μM, or 40 μM, or 60 μM, or 80 μM, or 100 μM RA in PC3 treatment media. After incubation in the drug treatment for 72 hours at 37° C., 5% CO2, 50 μL Cell titre Blue Assay Reagent was added to each well and the plate return to incubation at 37° C., 5% CO2, for a further 24 hours, at which time the absorbance at 620 nm was recorded. The reduction of absorbance at 620 nm represents a higher metabolic rate, and the data below has been normalized such that 100% represents cells that have been grown in the presence of undrugged media, and 0% represents wells containing no cells.

[5] = tested on: PC3 cells; test: Cell growth inhibition, lysed cell LDH assay, prostate cancer cell line; type: cell-based;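 also: 100% is cells receiving no drug treatment and 0% is wells without cells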
Description: To determine whether Risperidone could be effective in inhibiting growth of cancer cells overexpressing HSD10, a lysed cell LDH assay was conducted using cells from a PC3 cell line.
PC3 cells are from a cell line derived from a hormone refractory prostate cancer and are known to overexpress HSD10. […] Cells line tests were carried out in presence and absence of testosterone for comparison. After incubation in the drug treatment for 96 hours at 37° C., 5% CO2, the supernatant was removed from all wells of cells, and cells washed with 200 μL PBS.
as §3, with “PBS,” for “PBS from the cell cultures described above,”, “assay (CytoTox 96 Non-radioactive cytotoxicity assay (LDH Assay); Promega, Co., Madison Wis.).” for “assay.”
To determine the optimal concentration of Risperidone and CLA necessary to inhibit cell growth, a lysed cell LDH assay was conducted using various concentration of Risperidone and CLA. PC3 cells were cultured and a lysed cell LDH assay was conducted as described above, except that the various drug treatments evaluated contained either 0 μM, 12.5 μM, 25 μM, or 50 μM Risperidone in combination with 0 μM, 6.25 μM, 12.5 μM, 25 μM, 50 μM, or 100 μM CLA (see Table 3).
as §3

[6] = tested on: VERO cells; test: Cell growth inhibition, lysed cell LDH assay, non-cancerous cell line; type: cell-based;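 as to effect on growth of cells from the non-cancerous cell line VERO: 100% is cells receiving no drug treatment and 0% is wells without cells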
Description: as §1, §2, §3

[7] = tested on: PC-3M-luc cells; test: Orthotopic prostate tumor mouse xenograft model; settings: single drug
Description: Immunodeficeint male mice (athymic nude mice) were acclimated to the laboratory for at least one week prior to implantation of tumor. PC-3M-luc cells obtained directly from in vitro culture were then injected into the prostate on Day 0. Animals were divided into six groups of 12 mice each. Primary tumor size and metastases were assessed by bioluminescence measurements on day 6, 13, 20, 27, 34, and 40. On day 7 a five week treatment regime was initiated. Both individual drug and high and low dose combination were examined by administering the drugs twice daily on an individual body weight basis using a dose escalation protocol (Table 7). If tumors grew above a pre-determined level, or mice lost more than 10% of bodyweight, they were culled. The primary tumor was excised, weighed and measured. Individual organs were imaged to assess metastatic burden.

SMILES: CCCCCC/C=C/C=C\CCCCCCCC(=O)O [CLA, 9Z, 11E conjugated Linoleic acid]
- Percentage of Lysed Cells [1]: 87 ± 6.0%
- Percentage of Lysed Cells [2]: 56 ± 2.6%
- Percentage of Lysed Cells [3]: 4.5 ± 0.3%
- Cellular Metabolic Activity ([4]; 20 μM fatty acid): 86 ± 2.4%
- Cellular Metabolic Activity ([4]; 40 μM fatty acid): 71 ± 3.8%
- Cellular Metabolic Activity ([4]; 60 μM fatty acid): 59 ± 2.8%
- Cellular Metabolic Activity ([4]; 80 μM fatty acid): 63 ± 4.0%
- Cellular Metabolic Activity ([4]; 100 μM fatty acid): 67 ± 5.0%
- Percentage of Lysed Cells ([5]; 0 μM Risperidone, 6.25 μM CLA (Table 4)): 96 ± 0.7%
- Percentage of Lysed Cells ([5]; 0 μM Risperidone, 12.5 μM CLA (Table 4)): 90 ± 2.7%
- Percentage of Lysed Cells ([5]; 0 μM Risperidone, 25 μM CLA (Table 4)): 112 ± 9.5%
- Percentage of Lysed Cells ([5]; 0 μM Risperidone, 50 μM CLA (Table 4)): 103 ± 9.3%
- Percentage of Lysed Cells ([5]; 0 μM Risperidone, 100 μM CLA (Table 4)): 66 ± 11.8%
- Percentage of Lysed Cells ([5]; 12.5 μM of each drug, 96 hours, 100% = no drug treatment (Table 3)): 109 ± 0.56%
- Percentage of Lysed Cells ([5]; 25 μM of each drug, 96 hours, 100% = no drug treatment (Table 3)): 112 ± 1.1%
- growth inhibition of PC3 cells ([5]; 50 μM): no effect alone
- Percentage of Lysed Cells ([5]; 50 μM of each drug, 96 hours, 100% = no drug treatment (Table 3)): 107 ± 2.4%
- Percentage of Lysed Cells ([5]; PC3, 50 μM Risperidone and/or 50 μM CLA, 1 μM Testosterone (T) where added, 96 hours (Table 5)): 107 ± 2.4%
- effect on growth of cells from the non-cancerous cell line VERO ([6]; 50 μM): neither Risperidone nor CLA had any measurable effect
- Percentage of Lysed Cells ([6]; VERO, 50 μM Risperidone and/or 50 μM CLA, 1 μM Testosterone (T) where added, 96 hours): 98 ± 2.7%
- body weight throughout the study ([7]; by Day 40): maintained a constant weight
- animal loss ([7]; by day 34): about 10%
- Tumor Growth Inhibition ([7]; calculated on Day 34, dosing per Table 7, listed as Rumenic Acid): 21%
- Animal Survival (overall survivorship) ([7]; day 40, dosing per Table 7, listed as Rumenic Acid): 45%

Source: US10111877B2, “Modulators of androgen synthesis” (Tangent Reprofiling Limited, priority 2012, dated 2018)
